Test results reported in ChEMBL document CHEMBL3885861, “Open TG-GATES”.

Organism: Rattus norvegicus
Assay: Open TG-GATES - Regimen: Daily Repeat
Assay type: toxicity, organism-based, Sprague-Dawley
Parameters: regimen Daily Repeat, gender Male, age 6 weeks
Settings: in vivo, po, 0 mg/kg, route gavage, dose level Control; for APTT / Bas / Eos / Fbg / Hb / Ht / Lym / MCH / MCHC / MCV / Mono / Neu / PT / Plat / RBC / Ret / WBC: tissue Blood; for KIDNEY_L / KIDNEY_R / KIDNEY_TOTAL: tissue Kidney; for LIVER: tissue Liver; for A/G / ALP / ALT / AST / BUN / CRE / Ca / Cl / DBIL / GLC / IP / K / LDH / Na / PL / RALB / TBIL / TC / TG / TP / gamma-GTP: tissue Plasma

## Cc1nnc2n1-c1ccc(Cl)cc1C(c1ccccc1Cl)=NC2 [TRIAZOLAM]
72 h, time 3 day
  TERMINAL_BW: 223.3 g
  APTT: 19.2 s
  Bas: 0%
  Eos: 1.2%
  Fbg: 272.8 mg/dL
  Hb: 13.7 g/dL
  Ht: 40.9%
  Lym: 75.6%
  MCH: 21 pg
  MCHC: 33.5%
  MCV: 62.7 fL
  Mono: 3%
  Neu: 19.2%
  PT: 13 s
  Plat: 121.4 x10_4/uL
  RBC: 651.8 x10_4/ul
  Ret: 7.4%
  WBC: 85.5 x10_2/uL
  KIDNEY_L: 1 g
  KIDNEY_R: 1 g
  KIDNEY_TOTAL: 1.9 g
  LIVER: 10.5 g
  A/G: 0.9
  ALP: 1815 IU/L
  ALT: 48.2 IU/L
  AST: 75.8 IU/L
  BUN: 15 mg/dL
  CRE: 0.2 mg/dL
  Ca: 11.3 mg/dL
  Cl: 104.8 meq/L
  DBIL: 0.014 mg/dL
  GLC: 172.2 mg/dL
  IP: 8.4 mg/dL
  K: 4 meq/L
  LDH: 74.8 IU/L
  Na: 143.2 meq/L
  PL: 168.8 mg/dL
  RALB: 2.6 g/dL
  TBIL: 0.054 mg/dL
  TC: 86.4 mg/dL
  TG: 126 mg/dL
  TP: 5.6 g/dL
  gamma-GTP: 1.2 IU/L
[…], time 7 day
  TERMINAL_BW: 259.3 g
  APTT: 21.5 s
  Bas: 0%
  Eos: 1.2%
  Fbg: 262.4 mg/dL
  Hb: 13.7 g/dL
  Ht: 40.7%
  Lym: 76.4%
  MCH: 20.6 pg
  MCHC: 33.7%
  MCV: 61.2 fL
  Mono: 2.4%
  Neu: 19.4%
  PT: 12.8 s
  Plat: 126.9 x10_4/uL
  RBC: 665.6 x10_4/ul
  Ret: 5.6%
  WBC: 92.9 x10_2/uL
  KIDNEY_L: 1.1 g
  KIDNEY_R: 1.1 g
  KIDNEY_TOTAL: 2.2 g
  LIVER: 11.8 g
  A/G: 0.9
  ALP: 1652.6 IU/L
  ALT: 45.4 IU/L
  AST: 75 IU/L
  BUN: 16.8 mg/dL
  CRE: 0.2 mg/dL
  Ca: 10.9 mg/dL
  Cl: 105.8 meq/L
  DBIL: 0.01 mg/dL
  GLC: 188.2 mg/dL
  IP: 7.6 mg/dL
  K: 4.3 meq/L
  LDH: 73.6 IU/L
  Na: 141.8 meq/L
  PL: 161.6 mg/dL
  RALB: 2.6 g/dL
  TBIL: 0.042 mg/dL
  TC: 85 mg/dL
  TG: 122.8 mg/dL
  TP: 5.6 g/dL
  gamma-GTP: 1 IU/L
[…], time 14 day
  TERMINAL_BW: 313.4 g
  APTT: 18.7 s
  Bas: 0.4%
  Eos: 1%
  Fbg: 250.2 mg/dL
  Hb: 14.4 g/dL
  Ht: 43.9%
  Lym: 74.6%
  MCH: 19.9 pg
  MCHC: 32.8%
  MCV: 60.6 fL
  Mono: 2.4%
  Neu: 21%
  PT: 13.6 s
  Plat: 122.6 x10_4/uL
  RBC: 723.8 x10_4/ul
  Ret: 4.5%
  WBC: 116.9 x10_2/uL
  KIDNEY_L: 1.2 g
  KIDNEY_R: 1.2 g
  KIDNEY_TOTAL: 2.4 g
  LIVER: 13.3 g
  A/G: 0.8
  ALP: 1514.4 IU/L
  ALT: 46 IU/L
  AST: 79.6 IU/L
  BUN: 15.4 mg/dL
  CRE: 0.2 mg/dL
  Ca: 10.9 mg/dL
  Cl: 104.4 meq/L
  DBIL: 0.012 mg/dL
  GLC: 172.4 mg/dL
  IP: 7.1 mg/dL
  K: 3.9 meq/L
  LDH: 90 IU/L
  Na: 143 meq/L
  PL: 167.4 mg/dL
  RALB: 2.6 g/dL
  TBIL: 0.044 mg/dL
  TC: 82.4 mg/dL
  TG: 135.6 mg/dL
  TP: 5.7 g/dL
  gamma-GTP: 1.4 IU/L
[…], time 28 day
  TERMINAL_BW: 389.2 g
  APTT: 18.6 s
  Bas: 0.4%
  Eos: 1.4%
  Fbg: 262.6 mg/dL
  Hb: 15.3 g/dL
  Ht: 45.3%
  Lym: 79.6%
  MCH: 18.8 pg
  MCHC: 33.7%
  MCV: 55.8 fL
  Mono: 2%
  Neu: 15.8%
  PT: 13.4 s
  Plat: 106.8 x10_4/uL
  RBC: 812.8 x10_4/ul
  Ret: 2.1%
  WBC: 76.6 x10_2/uL
  KIDNEY_L: 1.4 g
  KIDNEY_R: 1.4 g
  KIDNEY_TOTAL: 2.7 g
  LIVER: 15.3 g
  A/G: 0.8
  ALP: 1373.8 IU/L
  ALT: 36.6 IU/L
  AST: 62 IU/L
  BUN: 15.4 mg/dL
  CRE: 0.2 mg/dL
  Ca: 10.7 mg/dL
  Cl: 105.8 meq/L
  DBIL: 0.008 mg/dL
  GLC: 185.8 mg/dL
  IP: 6.3 mg/dL
  K: 4.2 meq/L
  LDH: 57 IU/L
  Na: 144 meq/L
  PL: 158.4 mg/dL
  RALB: 2.7 g/dL
  TBIL: 0.056 mg/dL
  TC: 72.8 mg/dL
  TG: 159.8 mg/dL
  TP: 6.1 g/dL
  gamma-GTP: 1 IU/L
